Measured values reported in US20250171426A1, “PYRIMIDINEDIONE-BASED COMPOUNDS AS AXL, C-MET, AND MER INHIBITORS AND METHODS OF USE THEREOF” (CMG Pharmaceutical Co., Ltd., priority 2022, published 2025).

Columns and labels:
Assay type in all cases: biochemical
Conditions in all cases: 10 μM ATP, 60 min, ADP-GLO luminescence
AXL = biological target: T1, AXL (Homo sapiens, UniProt P30530); assay: Enzymatic assay (ADP-Glo kinase reaction), AXL
T1 sequence (P30530 26-894): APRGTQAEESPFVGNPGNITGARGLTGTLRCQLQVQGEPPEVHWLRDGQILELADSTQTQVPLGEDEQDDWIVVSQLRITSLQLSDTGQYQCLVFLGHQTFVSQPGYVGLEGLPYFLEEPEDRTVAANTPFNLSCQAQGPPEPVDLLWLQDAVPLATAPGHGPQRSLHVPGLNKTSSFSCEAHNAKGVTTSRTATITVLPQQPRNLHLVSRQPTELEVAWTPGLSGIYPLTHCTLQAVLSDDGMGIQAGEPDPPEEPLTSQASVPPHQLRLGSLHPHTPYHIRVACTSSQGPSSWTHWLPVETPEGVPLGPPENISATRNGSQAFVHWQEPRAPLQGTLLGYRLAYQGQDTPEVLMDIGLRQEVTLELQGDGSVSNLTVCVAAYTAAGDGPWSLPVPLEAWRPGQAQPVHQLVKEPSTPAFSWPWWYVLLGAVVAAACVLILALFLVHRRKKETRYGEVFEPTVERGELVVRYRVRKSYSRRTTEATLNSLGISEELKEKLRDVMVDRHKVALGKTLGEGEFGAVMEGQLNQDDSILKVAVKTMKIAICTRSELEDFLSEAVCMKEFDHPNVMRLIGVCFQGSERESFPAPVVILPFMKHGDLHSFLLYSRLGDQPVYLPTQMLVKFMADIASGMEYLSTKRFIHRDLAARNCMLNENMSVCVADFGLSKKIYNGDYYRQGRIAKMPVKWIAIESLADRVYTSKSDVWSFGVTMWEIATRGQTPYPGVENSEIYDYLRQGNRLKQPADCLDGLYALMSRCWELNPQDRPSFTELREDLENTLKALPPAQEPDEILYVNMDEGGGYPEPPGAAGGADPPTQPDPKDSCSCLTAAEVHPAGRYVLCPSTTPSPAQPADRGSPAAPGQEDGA
Method: (§1) All the kinase reactions were performed in 5 μL using tyrosine kinase buffer with 0.2 μg/μL poly (Glu4, Tyr1) substrate, 10 μM ATP, serial dilution of the inhibitor, and incubated at room temperature for 60 min. After the indicated incubation times, 5 μL ADP-GLO™ reagent (Promega, Madison, WI) was added to the reactions and the plate was incubated at room temperature for 40 min. […] All 384-well assay plates were read using a GLOMAX™ Discover Microplate Luminometer from Promega (Madison, WI). To plot, analyze the data and calculate all kinase reaction biochemical values, both Microsoft Excel and Prism from GraphPad 7 Software (La Jolla, CA) were used.

MER = biological target: T2, MER (Homo sapiens, UniProt Q12866); assay: Enzymatic assay (ADP-Glo kinase reaction), MER
T2 sequence (Q12866 21-999): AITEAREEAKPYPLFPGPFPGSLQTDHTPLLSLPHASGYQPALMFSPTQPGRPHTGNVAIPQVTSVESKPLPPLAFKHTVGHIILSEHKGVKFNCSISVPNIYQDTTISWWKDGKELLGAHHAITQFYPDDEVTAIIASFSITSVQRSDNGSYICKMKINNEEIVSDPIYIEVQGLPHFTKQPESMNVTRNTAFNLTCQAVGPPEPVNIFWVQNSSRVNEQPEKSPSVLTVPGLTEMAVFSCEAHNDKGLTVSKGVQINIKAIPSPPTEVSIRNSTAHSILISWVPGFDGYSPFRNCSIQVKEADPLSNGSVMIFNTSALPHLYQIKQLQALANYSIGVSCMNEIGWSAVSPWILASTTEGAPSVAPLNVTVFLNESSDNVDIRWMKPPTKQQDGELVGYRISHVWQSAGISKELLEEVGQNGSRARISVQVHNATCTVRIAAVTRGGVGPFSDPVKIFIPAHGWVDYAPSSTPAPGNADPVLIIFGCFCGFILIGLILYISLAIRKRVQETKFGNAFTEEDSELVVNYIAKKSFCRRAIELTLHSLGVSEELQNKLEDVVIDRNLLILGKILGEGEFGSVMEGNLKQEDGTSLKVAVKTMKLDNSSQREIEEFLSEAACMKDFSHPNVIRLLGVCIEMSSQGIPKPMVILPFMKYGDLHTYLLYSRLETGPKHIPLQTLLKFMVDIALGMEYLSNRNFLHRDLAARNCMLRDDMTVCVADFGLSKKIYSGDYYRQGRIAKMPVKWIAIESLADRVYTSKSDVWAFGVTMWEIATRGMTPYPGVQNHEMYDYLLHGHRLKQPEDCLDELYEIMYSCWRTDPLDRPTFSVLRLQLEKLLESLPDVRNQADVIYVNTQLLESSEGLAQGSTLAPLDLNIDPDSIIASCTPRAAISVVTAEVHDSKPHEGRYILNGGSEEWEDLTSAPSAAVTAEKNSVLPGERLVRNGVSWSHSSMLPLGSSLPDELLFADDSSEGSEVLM
Method: (§2) All the kinase reactions were performed in 5 μL using tyrosine kinase buffer with 0.2 μg/μL poly (Glu4, Tyr1) substrate, 10 μM ATP, serial dilution of the inhibitor, and incubated at room temperature for 60 min. After the indicated incubation times, 5 μL ADP-GLO™ reagent (Promega, Madison, WI) was added to the reactions and the plate was incubated at room temperature for 40 min. Then, 10 μL of kinase detection reagent was added and after an incubation time of 40 min, luminescence was recorded and IC50 values were determined (Table 1). All 384-well assay plates were read using a GLOMAX™ Discover Microplate Luminometer from Promega (Madison, WI). To plot, analyze the data and calculate all kinase reaction biochemical values, both Microsoft Excel and Prism from GraphPad 7 Software (La Jolla, CA) were used.
as §2, with “3).” for “1).”

c-MET = c-MET (Homo sapiens, UniProt P08581); assay: Enzymatic assay (ADP-Glo kinase reaction), c-MET
c-MET, sequence (P08581 25-1390): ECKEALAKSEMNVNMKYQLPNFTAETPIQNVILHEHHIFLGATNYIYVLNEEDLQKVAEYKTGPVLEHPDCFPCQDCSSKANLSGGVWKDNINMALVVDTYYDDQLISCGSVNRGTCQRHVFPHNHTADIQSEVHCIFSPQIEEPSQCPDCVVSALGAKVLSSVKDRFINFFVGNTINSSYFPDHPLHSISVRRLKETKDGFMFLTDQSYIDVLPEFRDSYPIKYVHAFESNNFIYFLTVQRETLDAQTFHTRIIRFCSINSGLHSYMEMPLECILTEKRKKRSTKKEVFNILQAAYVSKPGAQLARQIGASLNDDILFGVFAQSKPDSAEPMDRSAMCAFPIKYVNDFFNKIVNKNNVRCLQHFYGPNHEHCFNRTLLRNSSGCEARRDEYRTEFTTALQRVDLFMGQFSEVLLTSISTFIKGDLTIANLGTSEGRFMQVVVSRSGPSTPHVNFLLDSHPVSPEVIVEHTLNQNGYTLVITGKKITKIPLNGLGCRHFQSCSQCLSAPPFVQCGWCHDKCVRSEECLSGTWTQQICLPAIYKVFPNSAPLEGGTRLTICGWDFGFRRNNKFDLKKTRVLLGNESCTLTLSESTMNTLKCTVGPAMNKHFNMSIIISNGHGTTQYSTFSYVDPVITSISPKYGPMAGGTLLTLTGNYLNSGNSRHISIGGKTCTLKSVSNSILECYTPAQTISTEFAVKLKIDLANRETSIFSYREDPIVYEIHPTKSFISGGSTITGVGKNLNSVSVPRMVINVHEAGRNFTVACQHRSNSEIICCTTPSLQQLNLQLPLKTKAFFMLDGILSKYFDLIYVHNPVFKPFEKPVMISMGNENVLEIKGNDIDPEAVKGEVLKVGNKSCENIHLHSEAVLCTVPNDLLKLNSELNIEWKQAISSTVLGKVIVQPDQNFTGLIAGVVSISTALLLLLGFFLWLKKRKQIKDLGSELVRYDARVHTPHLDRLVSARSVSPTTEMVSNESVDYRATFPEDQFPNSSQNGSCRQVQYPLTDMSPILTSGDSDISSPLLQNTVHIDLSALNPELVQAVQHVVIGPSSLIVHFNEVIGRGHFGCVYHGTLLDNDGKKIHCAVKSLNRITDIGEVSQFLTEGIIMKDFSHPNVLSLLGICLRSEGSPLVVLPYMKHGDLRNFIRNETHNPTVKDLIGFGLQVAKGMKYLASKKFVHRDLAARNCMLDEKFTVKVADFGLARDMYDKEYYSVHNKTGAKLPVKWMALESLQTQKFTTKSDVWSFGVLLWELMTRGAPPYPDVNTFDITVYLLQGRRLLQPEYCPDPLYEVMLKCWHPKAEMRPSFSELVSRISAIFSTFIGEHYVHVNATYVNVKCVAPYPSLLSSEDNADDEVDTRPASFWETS
Method: as §1

Row | Structure (SMILES) | IC50 (AXL) [nM] | IC50 (MER) [nM] | IC50 (c-MET) [nM]
1 | CN(C)C(=O)Cn1cc(C(=O)Nc2ccc(Oc3ccnc(N)c3C#CCN3CCOCC3)c(F)c2)c(=O)n(-c2ccc(F)cc2)c1=O [Example 34, N-(4-((2-amino-3-(3-morpholinoprop-1-yn-1-yl)pyridin-4-yl)oxy)-3-fluorophenyl)-1-(2-(dimethylamino)-2-oxoethyl)-3-(4-fluorophenyl)-2,4-dioxo-1,2,3,4-tetrahydropyrimidine-5-carboxamide] | < 1000 | < 100 | < 10000
2 | CC(C)n1cc(C(=O)Nc2ccc(Oc3ccnc(N)c3-c3ccccc3)c(F)c2)c(=O)n(-c2ccc(F)cc2)c1=O [Example 22, N-(4-(2-amino-3-phenylpyridin-4-yloxy)-3-fluorophenyl)-3-(4-fluorophenyl)-1-isopropyl-2,4-dioxo-1,2,3,4-tetrahydropyrimidine-5-carboxamide] | < 100 | < 100 | < 100
3 | CN1CCN(C(C)(C)C#Cc2c(Oc3ccc(NC(=O)c4cn(C5CCOCC5)c(=O)n(-c5ccc(F)cc5)c4=O)cc3F)ccnc2N)CC1 [Example 57, N-(4-(2-amino-3-(3-methyl-3-(4-methylpiperazin-1-yl)but-1-ynyl)pyridin-4-yloxy)-3-fluorophenyl)-3-(4-fluorophenyl)-2,4-dioxo-1-(tetrahydro-2H-pyran-4-yl)-1,2,3,4-tetrahydropyrimidine-5-carboxamide] | < 100 | < 10 | < 100
4 | CN(C)C(=O)Cn1cc(C(=O)Nc2ccc(Oc3ccnc(N)c3C#CC(C)(C)N3CCOCC3)c(F)c2)c(=O)n(-c2ccc(F)cc2)c1=O [Example 33, N-(4-((2-amino-3-(3-methyl-3-morpholinobut-1-yn-1-yl)pyridin-4-yl)oxy)-3-fluorophenyl)-1-(2-(dimethylamino)-2-oxoethyl)-3-(4-fluorophenyl)-2,4-dioxo-1,2,3,4-tetrahydropyrimidine-5-carboxamide] | < 10000 | < 100 | < 1000
5 | C=CCn1cc(C(=O)Nc2ccc(Oc3ccnc(N)c3C#CCC3CCN(C)CC3)c(F)c2)c(=O)n(CC=C)c1=O [Example 69, 1,3-diallyl-N-(4-(2-amino-3-(3-(1-methylpiperdin-4-yl)prop-1-ynyl)pyridin-4-yloxy)-3-fluorophenyl)-2,4-dioxo-1,2,3,4-tetrahydropyrimidine-5-carboxamide] | < 100 | < 100 | < 1000
6 | CC(C)n1cc(C(=O)Nc2ccc(Oc3ccnc(N)c3Cl)c(F)c2)c(=O)n(-c2ccc(F)cc2)c1=O [Example 6, N-(4-(2-amino-3-chloropyridin-4-yloxy)-3-fluorophenyl)-3-(4-fluorophenyl)-1-isopropyl-2,4-dioxo-1,2,3,4-tetrahydropyrimidine-5-carboxamide] | – | < 100 | –

The next lines start with the values.

Row | IC50 (AXL) [nM] | IC50 (MER) [nM] | IC50 (c-MET) [nM] | Structure (SMILES)
7 | < 10 | < 10 | < 10 | CC(C)n1cc(C(=O)Nc2ccc(Oc3ccnc(N)c3C#CC(=O)N3CCNCC3)c(F)c2)c(=O)n(-c2ccc(F)cc2)c1=O [Example 1, N-(4-(2-amino-3-(3-oxo-3-(piperazin-1-yl)prop-1-ynyl)pyridin-4-yloxy)-3-fluorophenyl)-3-(4-fluorophenyl)-1-isopropyl-2,4-dioxo-1,2,3,4-tetrahydropyrimidine-5-carboxamide]
8 | < 10 | < 10 | < 10 | COCCN1CCN(C(C)(C)C#Cc2c(Oc3ccc(NC(=O)c4cn(C(C)C)c(=O)n(-c5ccc(F)cc5)c4=O)cc3F)ccnc2N)CC1 [Example 20, N-(4-(2-amino-3-(3-(4-(2-methoxyethyl)piperazin-1-yl)-3-methylbut-1-ynyl)pyridin-4-yloxy)-3-fluorophenyl)-3-(4-fluorophenyl)-1-isopropyl-2,4-dioxo-1,2,3,4-tetrahydropyrimidine-5-carboxamide]
9 | < 10 | < 100 | < 1000 | Cn1nc(C(=O)Nc2ccc(Oc3ccnc(N)c3C#CC(C)(C)N3CCNCC3)c(F)c2)c(=O)n(-c2ccc(F)cc2)c1=O [Example 47, N-(4-(2-amino-3-(3-methyl-3-(piperazin-1-yl)but-1-ynyl)pyridin-4-yloxy)-3-fluorophenyl)-4-(4-fluorophenyl)-2-methyl-3,5-dioxo-2,3,4,5-tetrahydro-1,2,4-triazine-6-carboxamide]
10 | < 100 | < 100 | < 1000 | Cc1nc(Cn2cc(C(=O)Nc3ccc(Oc4ccnc(N)c4C#CCN4CCOCC4)c(F)c3)c(=O)n(-c3ccc(F)cc3)c2=O)cs1 [Example 40, N-(4-((2-amino-3-(3-morpholinoprop-1-yn-1-yl)pyridin-4-yl)oxy)-3-fluorophenyl)-3-(4-fluorophenyl)-1-((2-methylthiazol-4-yl)methyl)-2,4-dioxo-1,2,3,4-tetrahydropyrimidine-5-carboxamide]
11 | < 10 | < 100 | < 100 | Cn1nc(C(=O)Nc2ccc(Oc3ccnc(N)c3C#CCC3CCNCC3)c(F)c2)c(=O)n(-c2ccc(F)cc2)c1=O [Example 46, N-(4-((2-amino-3-(3-(piperidin-4-yl)prop-1-yn-1-yl)pyridin-4-yl)oxy)-3-fluorophenyl)-4-(4-fluorophenyl)-2-methyl-3,5-dioxo-2,3,4,5-tetrahydro-1,2,4-triazine-6-carboxamide]
12 | < 10 | – | < 10 | CC(C)n1cc(C(=O)Nc2ccc(Oc3ccnc(N)c3C#CCN3CCOCC3)c(F)c2)c(=O)n(-c2ccc(F)cc2)c1=O [Example 24, N-(4-(2-amino-3-(3-morpholinoprop-1-ynyl)pyridin-4-yloxy)-3-fluorophenyl)-3-(4-fluorophenyl)-1-isopropyl-2,4-dioxo-1,2,3,4-tetrahydropyrimidine-5-carboxamide]
